# Measurements: patent US20240092835A1, “NOVEL PEPTIDES CAPABLE OF ALTERING NK CELL ACTIVITY” (Massachusetts Institute of Technology, priority 2022, published 2024)
# Where no end group is shown, it is not given here.
# What was measured:
# NKG2A+/NKG2C− NK cells = test: NK cell activation markers in NKG2A+/NKG2C- NK cells incubated with peptide and K562 expressing HLA-E (inhibition); type: cell-based, human; details: for effect on NKG2A+/NKG2C− NK cell inhibition (in words): K562 expressing HLA-E, CD107a, IFNG, TNF, CCL3; for percentage of CCL3+ NK cells / percentage of CD107a+ NK cells / percentage of IFNG+ NK cells / percentage of TNF+ NK cells: NKG2A+/NKG2C- NK cells, K562/HLA-E
# Outline: (§1)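 Human myelogenous leukemia K562 cells displaying HLA-E carry the test peptides (human or HCMV origin) and are presented to NK cells; surface activation markers are scored by percent positive cells.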
# NKG2A−/NKG2C+ NK cells [1] = test: NK cell activation markers in NKG2A-/NKG2C+ NK cells incubated with peptide and K562 expressing HLA-E (activation); type: cell-based, human; details: for effect on NKG2A−/NKG2C+ NK cell activation (in words): K562 expressing HLA-E, CD107a, IFNG, TNF, CCL3; for percentage of CCL3+ NK cells / percentage of CD107+ NK cells / percentage of IFNG+ NK cells / percentage of TNF+ NK cells: NKG2A-/NKG2C+ NK cells, K562/HLA-E
# Outline: as §1
# NKG2A−/NKG2C− NK cells = test: NK cell activation markers in control NKG2A-/NKG2C- NK cells incubated with peptide and K562 expressing HLA-E; type: cell-based, human
# Outline: as §1
# NKG2A−/NKG2C+ NK cells [2] = test: NKG2A-/NKG2C+ NK cell activation with peptide and RMA-S cells expressing HLA-E; type: cell-based; details: RMA-S cells expressing HLA-E
# Outline: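 RMA-S cells with low HLA-E expression were loaded with peptides and tested against NKG2A−/NKG2C+ NK cells, with two reference peptide sequences as controls. Activation read as percent cells positive for CD107a, IFNG, TNF and CCL3.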
# CD94/NKG2C = CD94/NKG2C (Homo sapiens, UniProt P26717+Q13241); test: Steady-state surface plasmon resonance of peptide-HLA-E complex with CD94/NKG2C; type: binding; details: for Binding of peptide-HLA-E complexes to CD94/NKG2C normalized to a theoretical Rmax: steady-state SPR
# Chain of CD94/NKG2C (P26717 94-231 limits assumed): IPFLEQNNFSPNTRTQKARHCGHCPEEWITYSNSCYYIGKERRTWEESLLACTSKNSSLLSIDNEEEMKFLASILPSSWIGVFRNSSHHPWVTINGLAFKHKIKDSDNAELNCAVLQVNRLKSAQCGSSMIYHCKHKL
# Chain of CD94/NKG2C (Q13241 32-179 limits assumed): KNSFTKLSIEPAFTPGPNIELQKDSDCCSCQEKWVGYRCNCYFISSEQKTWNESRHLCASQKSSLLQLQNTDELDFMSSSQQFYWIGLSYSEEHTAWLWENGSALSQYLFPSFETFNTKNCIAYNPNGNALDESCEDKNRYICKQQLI
sequence,measurement,setting,value
"VNPGRSLFL [human5, VNPGRSLFL]",effect on NKG2A+/NKG2C− NK cell inhibition (in words),NKG2A+/NKG2C− NK cells; listed as SEQ ID NO. 3,no or minimal effect
same,effect on NKG2A+/NKG2C− NK cell inhibition (in words),NKG2A+/NKG2C− NK cells; listed as h5,no effect
same,percentage of CCL3+ NK cells,NKG2A+/NKG2C− NK cells; Trial 1,51.6%
same,percentage of CD107a+ NK cells,NKG2A+/NKG2C− NK cells; Trial 1,36.8%
same,percentage of IFNG+ NK cells,NKG2A+/NKG2C− NK cells; Trial 1,16.9%
same,percentage of TNF+ NK cells,NKG2A+/NKG2C− NK cells; Trial 1,7.26%
same,percentage of CCL3+ NK cells,NKG2A+/NKG2C− NK cells; Trial 2,71.6%
same,percentage of CD107a+ NK cells,NKG2A+/NKG2C− NK cells; Trial 2,48.4%
same,percentage of IFNG+ NK cells,NKG2A+/NKG2C− NK cells; Trial 2,28.8%
same,percentage of TNF+ NK cells,NKG2A+/NKG2C− NK cells; Trial 2,14.6%
same,percentage of CCL3+ NK cells,NKG2A+/NKG2C− NK cells; Trial 3,55.3%
same,percentage of CD107a+ NK cells,NKG2A+/NKG2C− NK cells; Trial 3,43.1%
same,percentage of IFNG+ NK cells,NKG2A+/NKG2C− NK cells; Trial 3,30.8%
same,percentage of TNF+ NK cells,NKG2A+/NKG2C− NK cells; Trial 3,19.4%
same,percentage of CCL3+ NK cells,NKG2A+/NKG2C− NK cells; Trial 4,40.9%
same,percentage of CD107a+ NK cells,NKG2A+/NKG2C− NK cells; Trial 4,33.4%
same,percentage of IFNG+ NK cells,NKG2A+/NKG2C− NK cells; Trial 4,17.9%
same,percentage of TNF+ NK cells,NKG2A+/NKG2C− NK cells; Trial 4,10.7%
same,percentage of CCL3+ NK cells,NKG2A+/NKG2C− NK cells; Trial 5,44.2%
same,percentage of CD107a+ NK cells,NKG2A+/NKG2C− NK cells; Trial 5,30.4%
same,percentage of IFNG+ NK cells,NKG2A+/NKG2C− NK cells; Trial 5,16.5%
same,percentage of TNF+ NK cells,NKG2A+/NKG2C− NK cells; Trial 5,7.74%
same,percentage of CCL3+ NK cells,NKG2A+/NKG2C− NK cells; Trial 6,33.1%
same,percentage of CD107a+ NK cells,NKG2A+/NKG2C− NK cells; Trial 6,26%
same,percentage of IFNG+ NK cells,NKG2A+/NKG2C− NK cells; Trial 6,10.5%
same,percentage of TNF+ NK cells,NKG2A+/NKG2C− NK cells; Trial 6,6.36%
same,effect on NKG2A−/NKG2C+ NK cell activation (in words),NKG2A−/NKG2C+ NK cells [1]; listed as SEQ ID NO. 3,activate
same,effect on NKG2A−/NKG2C+ NK cell activation (in words),NKG2A−/NKG2C+ NK cells [1]; listed as h5,activated
same,percentage of CCL3+ NK cells,NKG2A−/NKG2C+ NK cells [1]; Trial 1,60.9%
same,percentage of CD107+ NK cells,NKG2A−/NKG2C+ NK cells [1]; Trial 1,59.7%
same,percentage of IFNG+ NK cells,NKG2A−/NKG2C+ NK cells [1]; Trial 1,35.3%
same,percentage of TNF+ NK cells,NKG2A−/NKG2C+ NK cells [1]; Trial 1,17.4%
same,percentage of CCL3+ NK cells,NKG2A−/NKG2C+ NK cells [1]; Trial 2,74.5%
same,percentage of CD107+ NK cells,NKG2A−/NKG2C+ NK cells [1]; Trial 2,61.8%
same,percentage of IFNG+ NK cells,NKG2A−/NKG2C+ NK cells [1]; Trial 2,43.2%
same,percentage of TNF+ NK cells,NKG2A−/NKG2C+ NK cells [1]; Trial 2,23.9%
same,percentage of CCL3+ NK cells,NKG2A−/NKG2C+ NK cells [1]; Trial 3,72.5%
same,percentage of CD107+ NK cells,NKG2A−/NKG2C+ NK cells [1]; Trial 3,72.6%
same,percentage of IFNG+ NK cells,NKG2A−/NKG2C+ NK cells [1]; Trial 3,57.2%
same,percentage of TNF+ NK cells,NKG2A−/NKG2C+ NK cells [1]; Trial 3,42.2%
same,percentage of CCL3+ NK cells,NKG2A−/NKG2C+ NK cells [1]; Trial 4,63.8%
same,percentage of CD107+ NK cells,NKG2A−/NKG2C+ NK cells [1]; Trial 4,64.3%
same,percentage of IFNG+ NK cells,NKG2A−/NKG2C+ NK cells [1]; Trial 4,51.1%
same,percentage of TNF+ NK cells,NKG2A−/NKG2C+ NK cells [1]; Trial 4,36%
same,percentage of CCL3+ NK cells,NKG2A−/NKG2C+ NK cells [1]; Trial 5,69.7%
same,percentage of CD107+ NK cells,NKG2A−/NKG2C+ NK cells [1]; Trial 5,67.6%
same,percentage of IFNG+ NK cells,NKG2A−/NKG2C+ NK cells [1]; Trial 5,53.4%
same,percentage of TNF+ NK cells,NKG2A−/NKG2C+ NK cells [1]; Trial 5,40.4%
same,percentage of CCL3+ NK cells,NKG2A−/NKG2C+ NK cells [1]; Trial 6,47.2%
same,percentage of CD107+ NK cells,NKG2A−/NKG2C+ NK cells [1]; Trial 6,46.8%
same,percentage of IFNG+ NK cells,NKG2A−/NKG2C+ NK cells [1]; Trial 6,28.6%
same,percentage of TNF+ NK cells,NKG2A−/NKG2C+ NK cells [1]; Trial 6,15%
same,percentage CCL3+ NK cells,NKG2A−/NKG2C− NK cells; Trial 1,33%
same,percentage CD107+ NK cells,NKG2A−/NKG2C− NK cells; Trial 1,26.5%
same,percentage TNF+ NK cells,NKG2A−/NKG2C− NK cells; Trial 1,4.11%
same,percentage of IFNG+ NK cells,NKG2A−/NKG2C− NK cells; Trial 1,14.6%
same,percentage CCL3+ NK cells,NKG2A−/NKG2C− NK cells; Trial 2,55.5%
same,percentage CD107+ NK cells,NKG2A−/NKG2C− NK cells; Trial 2,32.5%
same,percentage TNF+ NK cells,NKG2A−/NKG2C− NK cells; Trial 2,10.4%
same,percentage of IFNG+ NK cells,NKG2A−/NKG2C− NK cells; Trial 2,26.3%
same,percentage CCL3+ NK cells,NKG2A−/NKG2C− NK cells; Trial 3,53.4%
same,percentage CD107+ NK cells,NKG2A−/NKG2C− NK cells; Trial 3,48.1%
same,percentage TNF+ NK cells,NKG2A−/NKG2C− NK cells; Trial 3,18%
same,percentage of IFNG+ NK cells,NKG2A−/NKG2C− NK cells; Trial 3,41.4%
same,percentage CCL3+ NK cells,NKG2A−/NKG2C− NK cells; Trial 4,30.6%
same,percentage CD107+ NK cells,NKG2A−/NKG2C− NK cells; Trial 4,27.8%
same,percentage TNF+ NK cells,NKG2A−/NKG2C− NK cells; Trial 4,9.09%
same,percentage of IFNG+ NK cells,NKG2A−/NKG2C− NK cells; Trial 4,18.7%
same,percentage CCL3+ NK cells,NKG2A−/NKG2C− NK cells; Trial 5,23.5%
same,percentage CD107+ NK cells,NKG2A−/NKG2C− NK cells; Trial 5,19%
same,percentage TNF+ NK cells,NKG2A−/NKG2C− NK cells; Trial 5,6.08%
same,percentage of IFNG+ NK cells,NKG2A−/NKG2C− NK cells; Trial 5,14.6%
same,percentage CCL3+ NK cells,NKG2A−/NKG2C− NK cells; Trial 6,22%
same,percentage CD107+ NK cells,NKG2A−/NKG2C− NK cells; Trial 6,20.1%
same,percentage TNF+ NK cells,NKG2A−/NKG2C− NK cells; Trial 6,4.34%
same,percentage of IFNG+ NK cells,NKG2A−/NKG2C− NK cells; Trial 6,10.7%
same,NKG2A−/NKG2C+ NK cell activation relative to positive control peptides (in words),NKG2A−/NKG2C+ NK cells [2]; listed as SEQ ID NO. 3,"strongest activation of NK cells, comparable with the positive control peptides for several markers assessed"
same,NKG2A−/NKG2C+ NK cell activation relative to positive control peptides (in words),NKG2A−/NKG2C+ NK cells [2]; listed as h5,"strongest NK cell activation, comparable with the positive control peptides for several markers assessed"
same,binding of peptide-HLA-E complex to CD94/NKG2C normalized to a fitted Rmax,CD94/NKG2C; CD94/NKG2C concentration 0 μM,−0.001
same,binding of peptide-HLA-E complex to CD94/NKG2C normalized to a fitted Rmax,CD94/NKG2C; CD94/NKG2C concentration 0.1 μM,0.064
same,binding of peptide-HLA-E complex to CD94/NKG2C normalized to a fitted Rmax,CD94/NKG2C; CD94/NKG2C concentration 0.2 μM,0.119
same,binding of peptide-HLA-E complex to CD94/NKG2C normalized to a fitted Rmax,CD94/NKG2C; CD94/NKG2C concentration 0.4 μM,0.205
same,binding of peptide-HLA-E complex to CD94/NKG2C normalized to a fitted Rmax,CD94/NKG2C; CD94/NKG2C concentration 0.8 μM,0.333
same,binding of peptide-HLA-E complex to CD94/NKG2C normalized to a fitted Rmax,CD94/NKG2C; CD94/NKG2C concentration 1.6 μM,0.488
same,binding of peptide-HLA-E complex to CD94/NKG2C normalized to a fitted Rmax,CD94/NKG2C; CD94/NKG2C concentration 3.2 μM,0.650
same,binding of peptide-HLA-E complex to CD94/NKG2C normalized to a fitted Rmax,CD94/NKG2C; CD94/NKG2C concentration 6.4 μM,0.795
same,binding of peptide-HLA-E complex to CD94/NKG2C normalized to a fitted Rmax,CD94/NKG2C; CD94/NKG2C concentration 12.8 μM,0.902
same,binding of peptide-HLA-E complex to CD94/NKG2C normalized to a fitted Rmax,CD94/NKG2C; CD94/NKG2C concentration 25.6 μM,0.971
same,binding of peptide-HLA-E complex to CD94/NKG2C normalized to a fitted Rmax,CD94/NKG2C; CD94/NKG2C concentration 51.2 μM,0.990
same,binding of peptide-HLA-E complex to CD94/NKG2C normalized to a fitted Rmax,CD94/NKG2C; CD94/NKG2C concentration 102.4 μM,0.983
same,Binding of peptide-HLA-E complexes to CD94/NKG2C normalized to a theoretical Rmax,CD94/NKG2C; CD94/NKG2C analyte concentration 0 μM,0.000
same,Binding of peptide-HLA-E complexes to CD94/NKG2C normalized to a theoretical Rmax,CD94/NKG2C; CD94/NKG2C analyte concentration 0.1 μM,0.024
same,Binding of peptide-HLA-E complexes to CD94/NKG2C normalized to a theoretical Rmax,CD94/NKG2C; CD94/NKG2C analyte concentration 0.2 μM,0.044
same,Binding of peptide-HLA-E complexes to CD94/NKG2C normalized to a theoretical Rmax,CD94/NKG2C; CD94/NKG2C analyte concentration 0.4 μM,0.076
same,Binding of peptide-HLA-E complexes to CD94/NKG2C normalized to a theoretical Rmax,CD94/NKG2C; CD94/NKG2C analyte concentration 0.8 μM,0.123
same,Binding of peptide-HLA-E complexes to CD94/NKG2C normalized to a theoretical Rmax,CD94/NKG2C; CD94/NKG2C analyte concentration 1.6 μM,0.180
same,Binding of peptide-HLA-E complexes to CD94/NKG2C normalized to a theoretical Rmax,CD94/NKG2C; CD94/NKG2C analyte concentration 3.2 μM,0.240
same,Binding of peptide-HLA-E complexes to CD94/NKG2C normalized to a theoretical Rmax,CD94/NKG2C; CD94/NKG2C analyte concentration 6.4 μM,0.294
same,Binding of peptide-HLA-E complexes to CD94/NKG2C normalized to a theoretical Rmax,CD94/NKG2C; CD94/NKG2C analyte concentration 12.8 μM,0.333
same,Binding of peptide-HLA-E complexes to CD94/NKG2C normalized to a theoretical Rmax,CD94/NKG2C; CD94/NKG2C analyte concentration 25.6 μM,0.359
same,Binding of peptide-HLA-E complexes to CD94/NKG2C normalized to a theoretical Rmax,CD94/NKG2C; CD94/NKG2C analyte concentration 51.2 μM,0.366
same,Binding of peptide-HLA-E complexes to CD94/NKG2C normalized to a theoretical Rmax,CD94/NKG2C; CD94/NKG2C analyte concentration 102.4 μM,0.363
